Here are results for five molecules from article PMC5318888, “SAMHD1 enhances nucleoside-analogue efficacy against HIV-1 in myeloid cells” (Scientific Reports, 2017).

Where only a bound is given, the exact number is not on record here.

Format in all cases: cell-based
The test system of series [1] is HIV-1-GFP. Nature of the series: Anti-HIV-1 activity in U937 cells transduced with wt SAMHD1 or HD206-7AA mutant. How it is done: Antiviral assays were further performed in monocytoid cells transduced with YFP-expressing VLPs containing WT SAMHD1, HD206-7AA or Vpx. Briefly, U937 cells (6 × 10^5 cells/mL) were transduced with WT SAMHD1-YFP or HD206-7AA-YFP VLPs by spinoculation at 800 × g for 90 min in the presence of 1 μg/mL polybrene. Similarly, THP-1 cells (6 × 10^5 cells/mL) were transduced with Vpx-YFP VLPs by spinoculation at 800 × g for 90 min in the presence of 1 μg/mL polybrene. Cells were incubated at 37 °C in 5% CO2 and after 72 h, PMA^+ cells (6 × 10^5 cells/mL) were treated with 100 nM PMA and PMA^− cells (7.5 × 10^4 cells/mL) were left untreated. Cells were then incubated at 37 °C in 5% CO2 for 48 h. Nucleoside analogues were added at increasing concentrations (0–200 μM; except CFB, 0–1.6 μM) and cells were further incubated for 48 h. PMA^− cells were then infected with HIV-1-GFP by spinoculation at 800 × g for 90 min in the presence of 1 μg/mL polybrene, PMA^+ cells were infected with HIV-1-GFP in the presence of 1 μg/mL polybrene only. Cells were incubated for 72 h at 37 °C in 5% CO2 and then analysed by two-colour flow cytometry using a Fortessa X20 analyser (BD Biosciences). Data were analysed using the FlowJo software suite.
(§1) The cytotoxic concentration of nucleoside analogue that inhibits cell viability by 50% (CC50) and the effective concentration of nucleoside analogue that inhibits infection of cells by 50% (EC50) were calculated for each independent experiment by non-linear regression using GraphPad Prism v6.00 for Windows (GraphPad Software, San Diego, CA). Non-ambiguous values were subjected to a replicate test to calculate confidence intervals of 95% (95% CI). CC50 and EC50 values were determined for at least two independent experiments for each nucleoside analogue and a selectivity index (SI) also calculated, (SI = CC50/EC50). EC50 values for each replicate were used to perform an unpaired two-tailed t-test to determine significant differences between U937 cells expressing SAMHD1 wt or HD206-7AA mutant and THP-1 cells expressing Vpx or untransduced cells. P values of <0.005 were considered statistically significant.

For series [2], the system named is HIV-1-GFP. Nature of the series: microbe, parasite or virus in culture. How it is done:
H9 and Jurkat cells (6 × 10^5 cells/mL) were treated with increasing concentrations of nucleoside analogues (0–200 μM; except CFB, 0–1.6 μM) and incubated for 4 h at 37 °C in 5% CO2. Cells were then infected with HIV-1-GFP by spinoculation at 800 × g for 90 min in the presence of 1 μg/mL polybrene, and further incubated at 37 °C in 5% CO2 for 72 h. Undifferentiated U937 and THP-1 (PMA^−) cells (6 × 10^5 cells/mL) were treated with increasing concentrations of nucleoside analogues (0–200 μM; except CFB, 0–1.6 μM) and incubated at 37 °C in 5% CO2 for 48 h. Cells were then infected with HIV-1-GFP by spinoculation at 800 × g for 90 min in the presence of 1 μg/mL polybrene, and further incubated at 37 °C in 5% CO2 for 72 h. Non-dividing U937 and THP-1 (PMA^+) cells (6 × 10^5 cells/mL) were differentiated by addition of 100 nM PMA (PMA^+) for 48 h and treated with increasing concentrations of nucleoside analogues as described above. Cells were then infected with HIV-1-GFP in the presence of 1 μg/mL polybrene and further incubated at 37 °C in 5% CO2 for 72 h. The percentage of GFP^+cells was determined by one-colour flow cytometry using a Fortessa X20 analyser (BD Biosciences) and the data analysed using the FlowJo software suite.
Non-ambiguous values were subjected to a replicate test to calculate confidence intervals of 95% (95% CI). CC50 and EC50 values were determined for at least two independent experiments for each nucleoside analogue and a selectivity index (SI) also calculated, (SI = CC50/EC50). EC50 values for each replicate were used to perform an unpaired two-tailed t-test to determine significant differences between U937 cells expressing SAMHD1 wt or HD206-7AA mutant and THP-1 cells expressing Vpx or untransduced cells. P values of <0.005 were considered statistically significant.

The nature of another series: in vitro. Conditions: human. On the procedure:
H9, Jurkat and undifferentiated U937 and THP-1 (PMA^−) cells (6 × 10^5 cells/mL) were treated with increasing concentrations of nucleoside analogues (0–200 μM; except CFB, 0–1.6 μM) and incubated at 37 °C in 5% CO2 for 48 h. Medium was then replaced and cells were further incubated for 72 h. Non-dividing U937 and THP-1 (PMA^+) cells (6 × 10^5 cells/mL) were differentiated by addition of 100 nM phorbol-12-myristate-13-acetate (PMA^+) for 48 h and then treated with increasing concentrations of nucleoside analogues as described above. The percentage of live cells was determined by flow cytometry using Live/Dead fixable blue-fluorescent dyes (Invitrogen) and a Fortessa X20 analyser (BD Biosciences). Data were analysed using the FlowJo software suite.
as §1

[3] abbreviates: Human immunodeficiency virus 1, U-937, read-out: EC50 [95% CI], U937 PMA+, HD206/7AA+ population.
Where [4] appears, read: Human immunodeficiency virus 1, U-937, read-out: EC50 [95% CI], U937 PMA+, SAMHD1+ population.
Where [5] appears, read: Human immunodeficiency virus 1, U-937, read-out: EC50 [95% CI], U937 PMA−, HD206/7AA+ population.
[6] abbreviates: Human immunodeficiency virus 1, U-937, read-out: EC50 [95% CI], U937 PMA−, SAMHD1+ population.
Setting [7] is: U937 PMA−, HD206/7AA+ population.
Setting [8] is: Human immunodeficiency virus 1, THP-1, read-out: EC50 [95% CI], THP1 PMA+.
Where [9] appears, read: Human immunodeficiency virus 1, THP-1, read-out: EC50 [95% CI], THP1 PMA−.
The mark [10] stands for this setting: Human immunodeficiency virus 1, U-937, read-out: EC50 [95% CI], U937 PMA+.
Where [11] appears, read: Human immunodeficiency virus 1, U-937, read-out: EC50 [95% CI], U937 PMA−.

With `Nc1nc2c(ncn2COCCO)c(=O)[nH]1` [ACV, Acycloguanosine], the EC50 was 50900 nM in the series on HIV-1-GFP [1] (setting [3]); 652 nM with HIV-1-GFP [1] (setting [4]); greater than 200000 nM in the series on HIV-1-GFP [1] (setting [5]); greater than 200000 nM in the series with HIV-1-GFP [1] (setting [6]); 657 nM with HIV-1-GFP [2] (setting [8]); greater than 200000 nM in the series with HIV-1-GFP [2] (setting [9]). In addition, the EC50 is 52200 nM in the series with HIV-1-GFP [2] (setting [10]) and greater than 200000 nM with HIV-1-GFP [2] (setting [11]). In the series on HIV-1-GFP [1] (U937 PMA+), the “Fold (EC50 HD206/7AA vs SAMHD1)” value is 78 fold. The “EC50 [95% CI]” value was “no anti-HIV-1 activity” with HIV-1-GFP [1] (setting [7]) and “no anti-HIV-1 activity” in the series on HIV-1-GFP [1] (U937 PMA−, SAMHD1+ population). The “SI, selectivity index CC50/EC50” value in the series on HIV-1-GFP [2] (THP-1 PMA+) is greater than 304; in the series with HIV-1-GFP [2] (U937 PMA+) it was greater than 4.

In the case of `Nc1nc(O)c2ncn(COC(CO)CO)c2n1` [GCV, 2′-Nor-2′-deoxyguanosine], the EC50 was greater than 200000 nM in the series on HIV-1-GFP [1] (setting [3]); 876 nM with HIV-1-GFP [1] (setting [4]); greater than 200000 nM in the series with HIV-1-GFP [1] (setting [5]); greater than 200000 nM in the series on HIV-1-GFP [1] (setting [6]); 367 nM with HIV-1-GFP [2] (setting [8]); greater than 200000 nM in the series on HIV-1-GFP [2] (setting [9]). The EC50 with HIV-1-GFP [2] (setting [10]) and with HIV-1-GFP [2] (setting [11]) was greater than 200000 nM in each case. Moreover, the “EC50 [95% CI]” value was “no anti-HIV-1 activity” in the series with HIV-1-GFP [1] (setting [7]) and “no anti-HIV-1 activity” in the series on HIV-1-GFP [1] (U937 PMA−, SAMHD1+ population). Besides, in the series with HIV-1-GFP [2] (THP-1 PMA+), the “SI, selectivity index CC50/EC50” value was greater than 545.

For the molecule `Cc1ccnc2c1NC(=O)c1cccnc1N2C1CC1` [NVP, Nevirapine], the EC50 in the series with HIV-1-GFP [1] (setting [3]) was determined as 145 nM; in the series on HIV-1-GFP [1] (setting [4]) it was 97 nM; in the series with HIV-1-GFP [1] (setting [5]), 124 nM; in the series on HIV-1-GFP [1] (setting [6]), 112 nM; in the series on HIV-1-GFP [2] (setting [8]), 219 nM; with HIV-1-GFP [2] (setting [9]) it was 369 nM. Moreover, the EC50 in the series on HIV-1-GFP [2] (setting [10]) stood at 118 nM; in the series on HIV-1-GFP [2] (setting [11]), 505 nM. Further, the “Fold (EC50 HD206/7AA vs SAMHD1)” value in the series on HIV-1-GFP [1] (U937 PMA+) and in the series on HIV-1-GFP [1] (U937 PMA−) was 1 fold throughout. For the same molecule, the “SI, selectivity index CC50/EC50” value in the series with HIV-1-GFP [2] (THP-1 PMA+) was greater than 913; with HIV-1-GFP [2] (THP-1 PMA−), greater than 542; with HIV-1-GFP [2] (U937 PMA+) it was greater than 1695; in the series on HIV-1-GFP [2] (U937 PMA−), greater than 396.

Turning to `Cc1nnc(C(=O)NC(C)(C)c2nc(C(=O)NCc3ccc(F)cc3)c(O)c(=O)n2C)o1` [RAL, Raltegravir], the EC50 with HIV-1-GFP [1] (setting [3]) was found to be 75 nM; in the series on HIV-1-GFP [1] (setting [4]) it was 70 nM; with HIV-1-GFP [1] (setting [5]) it was 12 nM; in the series on HIV-1-GFP [1] (setting [6]) it was 11 nM; in the series with HIV-1-GFP [2] (setting [8]), 37 nM; with HIV-1-GFP [2] (setting [9]), 44 nM. Moreover, the EC50 stood at 63 nM in the series on HIV-1-GFP [2] (setting [10]) and 13 nM in the series on HIV-1-GFP [2] (setting [11]). The “Fold (EC50 HD206/7AA vs SAMHD1)” value with HIV-1-GFP [1] (U937 PMA+) and in the series with HIV-1-GFP [1] (U937 PMA−) was 1 fold throughout. Also, the “SI, selectivity index CC50/EC50” value in the series on HIV-1-GFP [2] (THP-1 PMA+) is given as greater than 5405; in the series with HIV-1-GFP [2] (THP-1 PMA−) it was greater than 4545; in the series with HIV-1-GFP [2] (U937 PMA+) it was greater than 3175; in the series with HIV-1-GFP [2] (U937 PMA−), greater than 15385.

The term CC50 denotes the concentration that lowers cell viability or growth by half. A low value points to harm at low concentration. For the molecule `Cc1cn([C@H]2C=C[C@@H](CO)O2)c(=O)[nH]c1=O` [d4T, 2′,3′-didehydro-2′,3′-dideoxythymidine], the EC50 in the series with HIV-1-GFP [1] (setting [3]) is 5820 nM; with HIV-1-GFP [1] (setting [4]), 528 nM; with HIV-1-GFP [1] (setting [5]), 2710 nM; in the series on HIV-1-GFP [1] (setting [6]), 801 nM; with HIV-1-GFP [2] (setting [8]), 3950 nM; in the series with HIV-1-GFP [2] (setting [9]) it was 6210 nM. Besides, the results for the EC50 in the series with HIV-1-GFP [2] (setting [10]) and in the series with HIV-1-GFP [2] (setting [11]) were 7040 nM and 6550 nM, respectively. For the same molecule, the “Fold (EC50 HD206/7AA vs SAMHD1)” value with HIV-1-GFP [1] (U937 PMA+) is 11 fold; with HIV-1-GFP [1] (U937 PMA−), 3 fold. The same molecule returned a CC50 at 48 h in the series “in vitro” greater than 200 µM. Also, the “fold increase of anti-HIV-1 activity in PMA+ over PMA− cells” value in the series on HIV-1-GFP [2] (THP-1) is on record as 2 fold. In addition, the “SI, selectivity index CC50/EC50” value with HIV-1-GFP [2] (THP-1 PMA+) is reported as greater than 51; with HIV-1-GFP [2] (THP-1 PMA−), greater than 32; in the series with HIV-1-GFP [2] (U937 PMA+) it was greater than 28; in the series on HIV-1-GFP [2] (U937 PMA−), greater than 31.
